In patent US20250340554A1, “5-Amino-1H-Pyrrolo[3,2-b]Pyridine-2-Carboxamide Derivatives as MTA-Cooperative Inhibitors of PRMT5” (BeOne Medicines I GmbH, priority 2023, published 2025):

Legend:
HCT116-MTAP-KO = assay: Compounds cell killing in HCT116 isogenic pair (Cell Titer-Glo viability), MTAP-KO cells; assay type: cell-based; settings: Homo sapiens, HCT-116, 144 h, 6 days, 0-10 μM compound, * = more than 50% viability inhibition at tested concentration without a full curve
Source text: (§1) HCT116 cell line was obtained from ATCC (CCL-247). It has a mutation in codon 13 of the ras proto-oncogene and can be used as a positive control for PCR assays of mutation in this codon. HCT116-MTAP-KO was knocked-out-MTAP-gene based HCT116, and one single clone was passed for this assay. HCT116-mock-RNA-KO was knocked-out-mock-gene based HCT116 with MTAP wildtype genotype. The base medium for HCT116 isogenic pair is RPMI 1640, HEPES (Gibco, 22400105). To make the complete growth medium, add the following components to the base medium: fetal bovine serum to a final concentration of 10% (Gibco, 10099-141C). The cell line was grown in a humidified 5% CO2 atmosphere at 37° C. and regularly tested for the presence of mycoplasma with MycoAlert™ PLUS Mycoplasma Detection Kit (Lonza, LT07-710).
(§2) • Seed HCT116-mock-RNA-KO (400/well) or HCT116-MTAP-KO (400/well) cells into a 96-well plate (Greiner: 655090), 100 μL/well. • Incubate at 37° C., 5% CO2, overnight. • Add 50 μL fresh growth-medium containing serial dilution of compounds for a final compound concentration of 0-10 μM to each well. • Incubate at 37° C., 5% CO2, 6 days. • The cell viability detected by Cell Titer-Glo (Promega, G7573). Add 70 μL of CellTiter-Glo® reagent in each well. • Incubate at room temperature for 10 minutes to stabilize luminescent signal. • Analyze with Microplate Reader (TECAN, SPARK) and fit IC50 using Prism® 9.

HCT116-mock-RNA-KO = assay: Compounds cell killing in HCT116 isogenic pair (Cell Titer-Glo viability), mock-RNA-KO cells (MTAP wildtype); assay type: cell-based; settings: Homo sapiens, HCT-116, 144 h, 6 days, 0-10 μM compound
Source text: as §1, §2

| SMILES | IC50 (HCT116-MTAP-KO) | IC50 (HCT116-mock-RNA-KO) |
| --- | --- | --- |
| Cc1cc2[nH]c(C(=O)N(Cc3ccc(-c4c(F)cccc4F)cn3)[C@@H]3CCCc4c(C5CC5)ccnc43)cc2nc1N (stereo in doubt) [Example A6, 5-amino-N-(4-cyclopropyl-5,6,7,8-tetrahydroquinolin-8-yl)-N-((5-(2,6-difluorophenyl)pyridin-2-yl)methyl)-6-methyl-1H-pyrrolo[3,2-b]pyridine-2-carboxamide] | < 4.6 nM | 1490 nM |
| Cc1cc2[nH]c(C(=O)N(Cc3ccc(-c4c(F)cccc4F)cn3)[C@@H]3CCCc4cccnc43)cc2nc1N [Example A1, (R)-5-amino-N-((5-(2,6-difluorophenyl)pyridin-2-yl)methyl)-6-methyl-N-(5,6,7,8-tetrahydroquinolin-8-yl)-1H-pyrrolo[3,2-b]pyridine-2-carboxamide] | < 0.5 nM | 155 nM |
| Cc1cc2[nH]c(C(=O)N(Cc3ccc(-c4ccccc4)cn3)[C@@H]3CCCc4cccnc43)cc2nc1N [Example A2, (R)-5-amino-6-methyl-N-((5-phenylpyridin-2-yl)methyl)-N-(5,6,7,8-tetrahydroquinolin-8-yl)-1H-pyrrolo[3,2-b]pyridine-2-carboxamide] | < 0.5 nM | 486 nM |
| Cc1cc2[nH]c(C(=O)N(Cc3ccc(-c4c(F)cncc4F)cn3)[C@@H]3CCCc4cccnc43)cc2nc1N [Example A3, (R)-5-amino-N-((3′,5′-difluoro-[3,4′-bipyridin]-6-yl)methyl)-6-methyl-N-(5,6,7,8-tetrahydroquinolin-8-yl)-1H-pyrrolo[3,2-b]pyridine-2-carboxamide] | 0.008 nM | 49 nM |
| Cc1cc2[nH]c(C(=O)N(Cc3ccc(-c4c(C)cnn4C)cn3)[C@@H]3CCCc4cccnc43)cc2nc1N [Example A4, (R)-5-amino-N-((5-(1,4-dimethyl-1H-pyrazol-5-yl)pyridin-2-yl)methyl)-6-methyl-N-(5,6,7,8-tetrahydroquinolin-8-yl)-1H-pyrrolo[3,2-b]pyridine-2-carboxamide] | 30 nM | 2360 nM |
| Cc1cc2[nH]c(C(=O)N(Cc3ccc(-c4c(F)cccc4F)cn3)[C@@H]3CCCc4cccnc43)c(Br)c2nc1N [Example A5, (R)-5-amino-3-bromo-N-((5-(2,6-difluorophenyl)pyridin-2-yl)methyl)-6-methyl-N-(5,6,7,8-tetrahydroquinolin-8-yl)-1H-pyrrolo[3,2-b]pyridine-2-carboxamide] | 167 nM | 3340 nM |
| Cc1cc2[nH]c(C(=O)N(Cc3ccc(-c4c(F)cccc4F)cn3)C3CCCc4c(C(C)(C)O)ccnc43)cc2nc1N (centres unmarked) [Example A7, 5-amino-N-((5-(2,6-difluorophenyl)pyridin-2-yl)methyl)-N-(4-(2-hydroxypropan-2-yl)-5,6,7,8-tetrahydroquinolin-8-yl)-6-methyl-1H-pyrrolo[3,2-b]pyridine-2-carboxamide] | < 4.6 nM | 339 nM |
| Cc1cc2[nH]c(C(=O)N(Cc3cc(Cl)c(-c4ccccc4)cn3)[C@@H]3CCCc4cccnc43)cc2nc1N [Example A8, (R)-5-amino-N-((4-chloro-5-phenylpyridin-2-yl)methyl)-6-methyl-N-(5,6,7,8-tetrahydroquinolin-8-yl)-1H-pyrrolo[3,2-b]pyridine-2-carboxamide] | < 4.6 nM | 2040 nM |
| Cc1cc2[nH]c(C(=O)N(Cc3ccc(-c4cn[nH]c4)c(C)n3)C3CCCc4cccnc43)cc2nc1N (centres unmarked) [Example A9, 5-amino-6-methyl-N-((6-methyl-5-(1H-pyrazol-4-yl)pyridin-2-yl)methyl)-N-(5,6,7,8-tetrahydroquinolin-8-yl)-1H-pyrrolo[3,2-b]pyridine-2-carboxamide] | 86 nM | 4180 nM |
| Cc1cc2[nH]c(C(=O)N(Cc3ccc(-c4c(Cl)cccc4Cl)cn3)C3CCCc4cccnc43)cc2nc1N (centres unmarked) [Example A10, 5-amino-N-((5-(2,6-dichlorophenyl)pyridin-2-yl)methyl)-6-methyl-N-(5,6,7,8-tetrahydroquinolin-8-yl)-1H-pyrrolo[3,2-b]pyridine-2-carboxamide] | 217 nM | 3480 nM |
